Measured values as given in patent publication US20250122202A1, “EGFR INHIBITOR, PREPARATION METHOD THEREFOR AND USE THEREOF” (SHANDONG NEW TIME PHARMACEUTICAL CO., LTD., priority 2021, published 2025).
Where two headings read alike, the source gives them in different places.

Key:
[1] = test system: KC-1474:PC-9 EGFR-Del19/T790M/C797S; experiment: Cell proliferation inhibition experiment (CCK-8), KC-1474; assay type: cell-based; settings: Homo sapiens, 72 h
Source text: (§1) Inhibition rate %=[(A0−AS)/(A0−AC)]×100%.

[2] = test system: KC-0178:NCI-1975 EGFR-L858R/T790M/C797S; experiment: Cell proliferation inhibition experiment (CCK-8), KC-0178; assay type: cell-based; settings: Homo sapiens, 72 h
Source text: as §1

A549 EGFR-WT = experiment: Cell proliferation inhibition experiment (CCK-8), A549; settings: Homo sapiens, A549, 72 h
[3] = target: EGFR D770-N771 ins NPG kinase (Homo sapiens (Human), UniProt P00533, INS770NPG); experiment: In-vitro enzyme experiment 1 (HTRF kinase assay), D770-N771 ins NPG kinase; assay type: biochemical
Chain of EGFR D770-N771 ins NPG kinase (P00533 other isoform, or with tags, fused parts or gaps del 1-668/ins NPG behind 770 limits assumed): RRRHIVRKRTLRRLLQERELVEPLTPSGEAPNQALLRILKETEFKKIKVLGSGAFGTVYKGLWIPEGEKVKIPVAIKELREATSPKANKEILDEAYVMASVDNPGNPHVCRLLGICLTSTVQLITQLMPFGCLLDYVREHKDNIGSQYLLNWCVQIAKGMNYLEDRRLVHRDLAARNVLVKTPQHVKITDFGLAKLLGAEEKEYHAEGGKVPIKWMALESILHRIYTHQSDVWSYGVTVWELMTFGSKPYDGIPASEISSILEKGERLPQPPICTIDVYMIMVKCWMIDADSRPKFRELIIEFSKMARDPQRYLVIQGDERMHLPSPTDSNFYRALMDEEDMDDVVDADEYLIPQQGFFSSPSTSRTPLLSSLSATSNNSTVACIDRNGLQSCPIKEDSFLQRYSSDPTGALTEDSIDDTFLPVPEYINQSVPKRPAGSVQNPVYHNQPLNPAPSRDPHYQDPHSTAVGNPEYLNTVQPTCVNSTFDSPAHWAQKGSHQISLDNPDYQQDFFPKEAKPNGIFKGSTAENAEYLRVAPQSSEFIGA

[4] = test system: KC-1362 BaF3-EGFR D770-N771 ins NPG cells; experiment: Anti-proliferative activity on KC-1362 BaF3-EGFR D770-N771 ins NPG cells; assay type: cell-based; settings: Ba/F3 EGFR
[5] = target: EGFR-Del19/T790M/C797S kinase (Homo sapiens, UniProt P00533, C797S/T790M, form not given); experiment: In-vitro enzyme experiment 2 (HTRF kinase assay), EGFR Del19 T790M C797S; assay type: biochemical; settings: read-out: enzyme inhibition IC50 (nM) EGFR-Del19/T790M/C797S
Chain of EGFR-Del19/T790M/C797S kinase (P00533 25-1210 T790M/C797S limits assumed, form open): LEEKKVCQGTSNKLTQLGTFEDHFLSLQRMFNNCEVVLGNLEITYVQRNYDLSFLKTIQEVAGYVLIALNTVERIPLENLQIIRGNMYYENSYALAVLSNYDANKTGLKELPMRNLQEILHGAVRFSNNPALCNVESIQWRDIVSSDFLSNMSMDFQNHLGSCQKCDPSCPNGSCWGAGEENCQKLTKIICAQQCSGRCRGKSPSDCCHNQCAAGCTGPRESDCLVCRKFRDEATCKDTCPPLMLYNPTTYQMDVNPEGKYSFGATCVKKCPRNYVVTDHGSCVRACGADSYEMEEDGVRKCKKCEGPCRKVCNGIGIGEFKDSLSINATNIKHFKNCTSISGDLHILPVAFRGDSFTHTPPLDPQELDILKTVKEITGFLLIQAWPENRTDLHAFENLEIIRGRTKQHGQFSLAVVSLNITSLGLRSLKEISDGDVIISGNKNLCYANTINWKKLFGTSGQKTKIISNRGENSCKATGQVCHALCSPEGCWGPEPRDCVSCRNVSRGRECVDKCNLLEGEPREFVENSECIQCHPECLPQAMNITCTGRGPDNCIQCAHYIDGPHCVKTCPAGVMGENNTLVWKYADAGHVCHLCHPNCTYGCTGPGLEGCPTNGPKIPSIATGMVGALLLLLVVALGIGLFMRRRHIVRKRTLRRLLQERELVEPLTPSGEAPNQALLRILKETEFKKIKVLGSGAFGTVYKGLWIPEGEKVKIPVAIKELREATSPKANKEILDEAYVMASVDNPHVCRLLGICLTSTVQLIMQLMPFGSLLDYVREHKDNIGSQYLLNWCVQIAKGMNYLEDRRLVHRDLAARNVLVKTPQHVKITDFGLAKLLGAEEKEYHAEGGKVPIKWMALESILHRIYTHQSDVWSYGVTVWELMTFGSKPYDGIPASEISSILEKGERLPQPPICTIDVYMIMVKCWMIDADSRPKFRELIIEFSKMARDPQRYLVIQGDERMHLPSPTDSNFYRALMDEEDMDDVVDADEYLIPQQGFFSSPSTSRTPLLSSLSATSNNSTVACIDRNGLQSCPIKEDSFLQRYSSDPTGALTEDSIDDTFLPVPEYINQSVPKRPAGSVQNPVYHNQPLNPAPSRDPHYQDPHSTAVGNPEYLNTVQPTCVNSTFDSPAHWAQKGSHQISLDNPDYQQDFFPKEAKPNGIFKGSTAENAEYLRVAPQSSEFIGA
Description: The specific experiment was as follows: • 1. […] Test method of activity of compound • a) a compound diluent was transferred to each well of an assay plate (784075, Greiner) using Echo 550; • b) the assay plate was sealed and centrifuged at 1,000 g for 1 min; • c) 2×EGFR (D770-N771 ins NPG T790M) was prepared in a 1× kinase buffer; • d) 5 μl of the 2×EGFR (D770-N771 ins NPG T790M) was added to a 384-well assay plate (784075, Greiner); • e) the assay plate was centrifuged at 1,000 g for 30 s and incubated at room temperature for 10 min; • f) 2× TK-substrate-biotin (2 μM) and ATP were added to the 1× kinase buffer and mixed; • g) the reaction was started after adding 5 μl of the TK-substrate-biotin (2 μM) and ATP mixture; • h) the assay plate was centrifuged at 1,000 g for 30 s; and the assay plate was sealed and incubated at room temperature for 40 min; • i) 4× Sa-XL 665 was prepared in an HTRF detection buffer; • j) 5 μl of the Sa-XL 665 and 5 μl of a TK-antibody-cryptate were added to each well of the assay plate; • k) the assay plate was centrifuged at 1,000 g for 30 s and incubated at room temperature for 1 h; and • l) fluorescence signals at 615 nm (cryptate) and 665 nm (XL665) were read on an Envision 2104 reader. • 3. Data analysis • 3.1 Calculation of ratio (665/615 nm) of each well • 3.2 Calculation of inhibition rate
(§2) [formula] • 3.3 Calculation of IC50 value of compound and drawing dose-effect curve of compound • IC50 values were calculated using GraphPad 6.0 by applying a non-linear regression curve (dose-effect relationship-variable slope) of the logarithm of the compound concentration versus the inhibition rate.
The preparation of the kinase buffer, the test method of the activity of the compound, and the data analysis referred to the relevant definitions in example 117, wherein step c) of the test method of the activity of the compound was replaced by preparing 2×EGFR Del19 T790M C797S in the 1× kinase buffer.

PC-9 EGFR-Del19 = experiment: Cell proliferation inhibition experiment (CCK-8), PC-9; assay type: cell-based; settings: Homo sapiens, 72 h
Source text: as §1

H1975 EGFR-L858R/T790M = experiment: Cell proliferation inhibition experiment (CCK-8), H1975; assay type: cell-based; settings: Homo sapiens, NCI-H1975, 72 h
Source text: as §1

[6] = target: EGFR (D770-N771 ins NPG T790M) kinase (Homo sapiens (Human), UniProt P00533, INS770NPG/T790M); experiment: In-vitro enzyme experiment 1 (HTRF kinase assay), EGFR D770-N771 ins NPG T790M; assay type: biochemical
Chain of EGFR (D770-N771 ins NPG T790M) kinase (P00533 other isoform, or with tags, fused parts or gaps T790M/del 1-668/ins NPG behind 770 limits assumed): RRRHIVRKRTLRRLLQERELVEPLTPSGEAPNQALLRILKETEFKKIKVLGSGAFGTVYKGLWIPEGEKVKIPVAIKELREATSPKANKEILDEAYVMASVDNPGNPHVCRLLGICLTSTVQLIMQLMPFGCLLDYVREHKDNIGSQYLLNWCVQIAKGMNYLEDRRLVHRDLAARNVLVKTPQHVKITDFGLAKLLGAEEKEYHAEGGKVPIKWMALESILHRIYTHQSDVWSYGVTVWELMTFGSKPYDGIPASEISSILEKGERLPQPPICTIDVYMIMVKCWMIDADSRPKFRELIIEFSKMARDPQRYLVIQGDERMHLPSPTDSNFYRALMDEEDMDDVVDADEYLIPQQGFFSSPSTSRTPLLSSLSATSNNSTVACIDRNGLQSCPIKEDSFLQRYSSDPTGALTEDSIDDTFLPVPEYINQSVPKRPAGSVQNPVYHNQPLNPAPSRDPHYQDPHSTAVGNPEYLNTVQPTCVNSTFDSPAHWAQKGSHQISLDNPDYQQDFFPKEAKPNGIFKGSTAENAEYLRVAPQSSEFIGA
Description: The specific experiment was as follows: • 1. Preparation of 1× concentration kinase buffer • 1 volume of 5 times concentration of an enzyme buffer diluted with 4 volumes of distilled water; 5 mM magnesium chloride; 1 mM DTT; and 1 mM MnCl2. • 2. Test method of activity of compound • a) a compound diluent was transferred to each well of an assay plate (784075, Greiner) using Echo 550; • b) the assay plate was sealed and centrifuged at 1,000 g for 1 min; • c) 2×EGFR (D770-N771 ins NPG T790M) was prepared in a 1× kinase buffer; • d) 5 μl of the 2×EGFR (D770-N771 ins NPG T790M) was added to a 384-well assay plate (784075, Greiner); • e) the assay plate was centrifuged at 1,000 g for 30 s and incubated at room temperature for 10 min; • f) 2× TK-substrate-biotin (2 μM) and ATP were added to the 1× kinase buffer and mixed; • g) the reaction was started after adding 5 μl of the TK-substrate-biotin (2 μM) and ATP mixture; • h) the assay plate was centrifuged at 1,000 g for 30 s; and the assay plate was sealed and incubated at room temperature for 40 min; • i) 4× Sa-XL 665 was prepared in an HTRF detection buffer; • j) 5 μl of the Sa-XL 665 and 5 μl of a TK-antibody-cryptate were added to each well of the assay plate; • k) the assay plate was centrifuged at 1,000 g for 30 s and incubated at room temperature for 1 h; and • l) fluorescence signals at 615 nm (cryptate) and 665 nm (XL665) were read on an Envision 2104 reader. • 3. Data analysis • 3.1 Calculation of ratio (665/615 nm) of each well • 3.2 Calculation of inhibition rate
as §2
Y=lowest value+(highest value−lowest value)/(1+10^((Log IC50−X)×slope)) • X: logarithm of inhibitor concentration; and Y: inhibition rate. • 3.4 Double test report • 3.4.1 After one tester completed a report, another tester again checked the report to ensure that data analysis was correct. • 3.4.2 The data was exported from the software and manually analyzed. • 3.4.2.1 The rate was converted into the inhibition rate. All the IC50 values were first calculated with the inhibition rate using Prism GraphPad 6.0. • 3.4.2.2 Then the IC50 value was recalculated using the ratio to check the accuracy of the analysis. • 3.4.3 The number of all the compounds was ensured to be correct.

[7] = read-out: cell proliferation inhibition IC50 (μM) A549, 72 h, CCK-8, Table 5 numeric
[8] = read-out: cell proliferation inhibition IC50 (μM) A549, 72 h, CCK-8

Structure (SMILES) | IC50 [1] [µM] | IC50 [2] [µM] | IC50 [5] [nM] | IC50 (PC-9 EGFR-Del19) [µM] | IC50 (H1975 EGFR-L858R/T790M) [µM] | further results
C=CC(=O)Nc1cccc(Oc2nc(Nc3ccc(N4CCN(C)CC4)c(F)c3)nc3[nH]ccc23)c1 [Avitinib, reference compound] | 0.1 to 1 | 1 to 2 |  |  |  | IC50 (A549 EGFR-WT; [7]): 1.06 µM
CN1CCN(c2ccc(Nc3nc(NC4CC5(COC5)C4)c4c(C(=O)c5ccc(F)cc5)c[nH]c4n3)cc2)CC1 [Example 18] |  |  | 10 to 100 |  |  | IC50 [3]: 28.2 nM; IC50 [4]: 150 nM
CN1CCN(c2ccc(Nc3nc(N[C@@H]4C=C[C@H](CO)C4)c4c(C(=O)c5ccc(F)cc5)c[nH]c4n3)cc2)CC1 [Example 19] | 0.1 to 1 | 1 to 2 | 10 to 100 | < 0.1 | 0.1 to 1 | IC50 (A549 EGFR-WT; [8]): 0.1 to 1 µM
CN1CCN(c2ccc(Nc3nc(N[C@H]4C=C[C@@H](CO)C4)c4c(C(=O)c5ccc(F)cc5)c[nH]c4n3)cc2)CC1 [Example 20] | 0.1 to 1 | 1 to 2 | 10 to 100 | < 0.1 | 0.1 to 1 | IC50 (A549 EGFR-WT; [8]): 0.1 to 1 µM
CN1CCN(c2ccc(Nc3nc(N[C@H]4CC[C@@H](O)CC4)c4c(C(=O)c5ccc(F)cc5)c[nH]c4n3)cc2)CC1 [Example 55] | < 0.1 | 0.1 to 1 | 10 to 100 | < 0.1 | 0.1 to 1 | IC50 (A549 EGFR-WT; [8]): 0.1 to 1 µM
CN1CCN(c2ccc(Nc3nc(N[C@H]4CC[C@H](O)CC4)c4c(C(=O)c5ccc(F)cc5)c[nH]c4n3)cc2)CC1 [Example 56] | < 0.1 | 1 to 2 | 10 to 100 | < 0.1 | 0.1 to 1 | IC50 (A549 EGFR-WT; [8]): 0.1 to 1 µM
CN1CCN(c2ccc(Nc3nc(NC4CCN(S(C)(=O)=O)CC4)c4c(C(=O)c5ccc(F)cc5)c[nH]c4n3)cc2)CC1 [Example 64] |  |  | 100 to 600 |  |  | IC50 [6]: 93.6 nM; IC50 [3]: 24.2 nM; IC50 [4]: 200 nM
CN1CCN(c2ccc(Nc3nc(NC45CC6CC(CC(O)(C6)C4)C5)c4c(C(=O)c5ccc(F)cc5)c[nH]c4n3)cc2)CC1 [Example 70] |  |  | 10 to 100 |  |  | IC50 [3]: 6.55 nM; IC50 [4]: 54 nM
CN1CCN(c2ccc(Nc3nc(N[C@H]4CC[C@H](CO)CC4)c4c(C(=O)c5ccc(F)cc5)c[nH]c4n3)cc2F)CC1 [Example 78] | < 0.1 | 1 to 2 | 10 to 100 | < 0.1 | 0.1 to 1 | 
COc1cc(N2CCOCC2)ccc1Nc1nc(N[C@H]2CC[C@H](CO)CC2)c2c(C(=O)c3ccc(F)cc3)c[nH]c2n1 [Example 81] |  |  |  |  |  | IC50 (A549 EGFR-WT; [7]): 0.92 µM
CN1CCN(c2ccc(Nc3nc(N[C@H]4CC[C@@H](N)CC4)c4c(C(=O)c5ccc(F)cc5)c[nH]c4n3)cc2)CC1 [Example 86] | < 0.1 | 1 to 2 | < 10 | < 0.1 | 0.1 to 1 | 
CN1CCN(c2ccc(Nc3nc(N[C@@H]4CC[C@@H](CO)OC4)c4c(C(=O)c5ccc(F)cc5)c[nH]c4n3)cc2)CC1 [Example 95] | 0.1 to 1 | < 0.1 | 10 to 100 |  |  | 
Cc1ccc(C(=O)c2c[nH]c3nc(Nc4ccc(N5CCOCC5)cc4)nc(N[C@H]4CC[C@H](CO)CC4)c23)cc1 [Example 97] | 0.1 to 1 | 0.1 to 1 |  |  |  | 
CC(C)N1CCC(Nc2nc(Nc3ccc(N4CCOCC4)cc3)nc3[nH]cc(C(=O)c4ccc(F)cc4)c23)CC1 [Example 99] |  |  |  |  |  | IC50 (A549 EGFR-WT; [7]): 0.76 µM
O=C(c1cc(F)cc(F)c1)c1c[nH]c2nc(Nc3ccc(N4CCOCC4)cc3)nc(N[C@H]3CC[C@H](CO)CC3)c12 [Example 101] |  |  |  |  |  | IC50 (A549 EGFR-WT; [7]): 0.46 µM
CN1CCN(c2ccc(Nc3nc(N[C@H]4CC[C@@H](CO)CC4)c4c(C(=O)c5ccc(F)cc5)c[nH]c4n3)cc2F)CC1 [Example 103] | < 0.1 | 1 to 2 | 10 to 100 | < 0.1 | 0.1 to 1 | IC50 (A549 EGFR-WT; [8]): 0.1 to 1 µM
O=C(c1ccc(F)cc1Cl)c1c[nH]c2nc(Nc3ccc(N4CCOCC4)cc3)nc(N[C@H]3CC[C@H](CO)CC3)c12 [Example 105] |  |  |  |  |  | IC50 (A549 EGFR-WT; [7]): 0.29 µM
COc1cc(N2CCN(C)CC2)ccc1Nc1nc(N[C@H]2CC[C@@H](CO)CC2)c2c(C(=O)c3ccc(F)cc3)c[nH]c2n1 [Example 106] | 0.1 to 1 | 1 to 2 | 10 to 100 |  |  | 
CN(C)CCOc1ccc(Nc2nc(N[C@H]3CC[C@@H](CO)CC3)c3c(C(=O)c4ccc(F)cc4)c[nH]c3n2)cc1 [Example 107] | 0.1 to 1 | 1 to 2 | 10 to 100 | < 0.1 | 0.1 to 1 | 
COc1nn(C)cc1Nc1nc(N[C@H]2CC[C@@H](CO)CC2)c2c(C(=O)c3ccc(F)cc3)c[nH]c2n1 [Example 116] | 0.1 to 1 | 1 to 2 | 10 to 100 | < 0.1 | 0.1 to 1 | IC50 (A549 EGFR-WT; [8]): 1 to 2 µM
C=CC(=O)Nc1cc(Nc2nccc(-c3cn(C)c4ccccc34)n2)c(OC)cc1N(C)CCN(C)C [Osimertinib, reference compound] | 1 to 2 | 1 to 2 |  |  |  | IC50 (A549 EGFR-WT; read-out: cell proliferation inhibition IC50 (μM) A549): 3.01 µM
